What is called EC50 is the concentration giving half of the maximal effect. Low readings indicate an effect from little substance, high ones a need for much substance.

Activity calls are given as the source filed them. The rule behind the calls is not given here.

Common to all, as to format: functional, cell-based
Assay [1] deals with Protein smoothened (Mus musculus) (UniProt P56726). Put plainly: Agonist activity at SMO in mouse NIH3T3 cells assessed as induction of SMO accumulation in primary cilia incubated for 12 hrs by fluorescence method. Particulars: filed as agonist.
Chain of Protein smoothened (Mus musculus) (P56726 whole entry): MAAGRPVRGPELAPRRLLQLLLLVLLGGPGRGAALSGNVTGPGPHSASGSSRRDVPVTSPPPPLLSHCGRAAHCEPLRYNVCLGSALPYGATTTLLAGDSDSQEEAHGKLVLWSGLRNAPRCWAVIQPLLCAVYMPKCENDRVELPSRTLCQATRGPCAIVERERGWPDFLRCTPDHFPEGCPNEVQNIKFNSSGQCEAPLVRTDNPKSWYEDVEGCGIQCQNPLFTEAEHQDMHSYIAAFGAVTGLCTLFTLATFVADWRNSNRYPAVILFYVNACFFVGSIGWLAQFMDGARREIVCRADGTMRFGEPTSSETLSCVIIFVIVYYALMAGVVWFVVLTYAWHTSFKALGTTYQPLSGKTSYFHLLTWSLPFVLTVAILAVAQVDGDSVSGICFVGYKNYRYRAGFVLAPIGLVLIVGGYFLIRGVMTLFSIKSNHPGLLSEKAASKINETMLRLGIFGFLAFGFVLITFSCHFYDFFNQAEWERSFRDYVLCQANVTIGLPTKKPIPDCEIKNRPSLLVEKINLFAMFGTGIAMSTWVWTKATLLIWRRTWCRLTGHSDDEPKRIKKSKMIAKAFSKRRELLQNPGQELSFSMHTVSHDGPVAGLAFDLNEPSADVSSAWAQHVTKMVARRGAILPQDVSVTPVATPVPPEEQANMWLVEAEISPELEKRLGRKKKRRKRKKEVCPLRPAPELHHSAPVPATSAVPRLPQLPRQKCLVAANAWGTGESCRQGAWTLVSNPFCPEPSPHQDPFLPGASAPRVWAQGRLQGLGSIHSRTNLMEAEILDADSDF
Assay [2] shares this target. Put plainly: Agonist activity at SMO in mouse NIH3T3 cells preincubated for 2 hrs followed by SAG stimulation and measured after 24 hrs in presence of GDC0449 by Bright-Glo luciferase assay. Particulars: filed as agonist, time 26.0 hrs.
Assay [3] shares this target. Put plainly: Antagonist activity at SMO in mouse NIH3T3 cells preincubated for 2 hrs followed by SAG stimulation and measured after 24 hrs in presence of GDC0449 by Bright-Glo luciferase assay. Particulars: time 26.0 hrs.
The target is the same in assay [4]. Nature of the assay: Agonist activity at SMO in mouse NIH3T3 cells assessed as induction of SMO accumulation in primary cilia incubated for 12 hrs by AlexaFluor 488/ DAPI staining based immunofluorescence method. Particulars: filed as agonist.
Assay [5] shares this target. Nature of the assay: Agonist activity at SMO in mouse NIH3T3 cells assessed as fluorescent intensity of ciliary SMO incubated for 12 hrs by fluorescence method. The settings on record: filed as agonist.
Assay [6] shares this target. Nature of the assay: Antagonist activity at SMO in mouse NIH3T3 cells preincubated for 2 hrs followed by ShhN stimulation and measured after 24 hrs in presence of GDC0449 by Bright-Glo luciferase assay. Particulars: filed as antagonist, time 26.0 hrs.
For assay [7] the target is unchanged. Put plainly: Antagonist activity at SMO in mouse NIH3T3 cells preincubated for 2 hrs followed by SAG stimulation and measured after 24 hrs by Bright-Glo luciferase assay. Particulars: time 26.0 hrs.
Assay [8] shares this target. Nature of the assay: (§1) Agonist activity at SMO in mouse NIH3T3 cells incubated for 2 hrs by Bright-Glo luciferase assay.
The target of assay [9] is Protein smoothened (Mus musculus, UniProt P56726). The description is as §1.
Chain of Protein smoothened (P56726 whole entry): as above

`CC(C)CCC[C@](C)(O)[C@H]1CC[C@H]2[C@@H]3CC=C4C[C@@H](O)CC[C@]4(C)[C@H]3CC[C@@]21C`: the outcome in assay [1], in [2], in [4], in [5] and in [6] was Active. For the same molecule, the outcome in assay [3] was inactive.
In the case of `CC(O)(CCCCCCOCCOCc1cn(CCOCCS(=O)(=O)c2ccc(C(=O)Nc3ccc(Cl)c(-c4ccccn4)c3)c(Cl)c2)nn1)C1CC[C@H]2[C@@H]3CC=C4C[C@@H](O)CC[C@]4(C)[C@H]3CC[C@]12C` (stereo partly specified), the result in assay [7] was inactive.
`CN[C@H]1CC[C@H](N(Cc2cccc(-c3ccnc(OCCOCCOCCOCCn4cc(COCCOCCCCCC[C@](C)(O)C5CC[C@H]6[C@@H]7CC=C8C[C@@H](O)CC[C@]8(C)[C@H]7CC[C@]56C)nn4)c3)c2)C(=O)c2sc3ccccc3c2Cl)CC1` (stereo partly specified): in assay [8], the outcome was inactive. Besides, the outcome in assay [1], in [4] and in assay [5] was Active.
In the case of `CN[C@H]1CC[C@H](N(Cc2cccc(-c3ccnc(OCCOCCOCCOCCn4cc(COCCOCCCCCC[C@@H](C)C5CC[C@H]6[C@@H]7CC=C8C[C@@H](O)CC[C@]8(C)[C@H]7CC[C@]56C)nn4)c3)c2)C(=O)c2sc3ccccc3c2Cl)CC1` (stereo partly specified), the EC50 in assay [9] stood at 200 nM. The outcome in [1], in assay [4] and in assay [5] was Active.
With `CC(O)(CCCCCCOCc1cn(CCOCCS(=O)(=O)c2ccc(C(=O)Nc3ccc(Cl)c(-c4ccccn4)c3)c(Cl)c2)nn1)C1CC[C@H]2[C@@H]3CC=C4C[C@@H](O)CC[C@]4(C)[C@H]3CC[C@]12C` (stereo partly specified), in [7], the result was inactive.

For the origin of these results see ChEMBL document CHEMBL4828758, “Elucidation of Distinct Modular Assemblies of Smoothened Receptor by Bitopic Ligand Measurement” (J Med Chem, 2021).
